For the assay, the system named is rat tracheal smooth muscle. Put plainly: Proliferation of cultured airway smooth muscle (MTT reduction, cell counts). The note with it: Rattus norvegicus; 50,000 cells/well cultured in 10% FBS for 48 hours; MTT reduction (Figure 3D); read-out: 50% inhibitory concentration. It is filed as cell-based. The procedure:
Polyclonal horseradish peroxidase anti-rabbit IgG was from Transduction Laboratories (Lexington, KY). M-MLV reverse transcriptase was from Life Technologies (Gaithersburg, MD). All other materials were obtained from Sigma unless specified. Measurement of Cultured Airway Smooth Muscle Proliferation. Rat tracheal smooth muscle was cultured by euthanizing rats with pentobarbital overdose and removal of their tracheas. The posterior tracheal membrane was isolated, minced and digested twice for 30 minutes at 37°C. in HBSS containing 0.2% type IV collagenase and 0.05% type IV elastase. Each enzyme digest was collected and centrifuged for 5 minutes at 500 g at room temperature. The supernatant was removed and the pellet was resuspended in DMEM supplemented with 10% FBS, nonessential amino acids, penicillin (100 U/ml), streptomycin (100 µg/ml) and amphotericin (250 ng/ml). Cells were seeded in this medium into 25-cm^2 flasks at 2 x 10^5 cells per flask and incubated in a humidified atmosphere of 5% CO2/95% air at 37°C. Upon reaching confluence, cells were detached with 0.25% trypsin-0.002% EDTA solution for passage.
Proliferation of cultured airway smooth muscle was quantitated using modification of a previously reported colorimetric method based upon metabolic reduction of the soluble yellow tetrazolium dye 3-[4,5-dimethylthiazol]-2yl-2,5-diphenyl tetrazolium bromide (MTT) to its insoluble purple formazan by the action of mitochondrial succinyl dehydrogenase. See Hirst, S.J., Barnes, P.J., and Twort, C.H.C., "Quantifying proliferation of cultured human and rabbit airway smooth muscle in response to serum and platelet derived growth factor," Am. J. Respir. Cell Mol. Biol., 7, 574-581 (1992). This assay empirically distinguishes between dead and living cells. For proliferation studies, cells were seeded into 24-well uncoated plastic plates at 15,000-50,000 cells per well and cultured with DMEM and mitogens. After 24-96 hours the medium was replaced with 1 ml/well fresh DMEM containing 100 µg/ml MTT and 0.5% FBS, and plates were incubated an additional hour MTT-containing medium was removed, cells were washed twice with 1 ml of sterile Dulbecco's modified phosphate buffered saline without Ca^2+ or Mg^2+ (DPBS), 0.5 ml dimethylsulfoxide (DMSO) was added to each well, and the absorbance of the solubilized purple formazan dye was measured at 540 nm on a Shimadzu UV160U spectrophotometer. A total of 4-6 wells was studied at each treatment condition.
The optimum concentration of FBS for use as a mitogenic stimulus was determined by incubating 15,000 cells per well with DMEM containing 0.25, 1.0, 5.0 or 10.0% FBS and MTT reduction was determined after 24, 48, 72 or 96 hours. […] After 24 hours, cells were washed twice with DPBS, fixed and permeabilized by two sequential 5 minute exposures to ice-cold methanol, stained with Giemsa-modified Wright's stain for 3 minutes and washed with DPBS. Cell counts were performed on 10 random fields at 40 power using a 0.01-cm^2 ocular grid. Cell Culture Treatments for Measurement of Airway Smooth Muscle Proliferation. The effect of dehydroepiandrosterone (DHEA) and 16α-bromoepiandrosterone (16α-BrEA) on cellular proliferation was studied in cultures stimulated with 0.5-10% FBS or 1-50 ng/ml recombinant human platelet derived growth factor (PDGF-AA). […] See, for example, the method of Le, Y. Y. , and Xu, R.B., "The molecular mechanism of the action of the pharmacological doses of glucocorticoids. Studies on the low-affinity glucocorticoid receptor," Receptor, 5, 63-69 (1995).
(In general: Formazan colour is commonly taken as a measure of viable cells.)

As for `C[C@@H]1C[C@H]2[C@@H]3CCC4=CC(=O)C=C[C@]4(C)[C@@]3(F)[C@@H](O)C[C@]2(C)[C@@]1(O)C(=O)CO` [dexamethasone, reference compound], the IC50 came out at 10 µM.
